Reference: PubChem BioAssay AID1329 (NMMLSC, 2008)
Calls of active or inactive are those of the source. How the calls were made is not given here.

Target: Induced myeloid leukemia cell differentiation protein Mcl-1 (Homo sapiens) (UniProt Q07820)
Assay: Mcl-1/Bim interaction regulators – biochemical, bead-based flow cytometry, multiplexed, human, dose response (AID 1329)
Conditions: Bim peptide-Mcl-1 binding, MCF

Sequence of Induced myeloid leukemia cell differentiation protein Mcl-1 (Homo sapiens) (Q07820 whole entry, looked up): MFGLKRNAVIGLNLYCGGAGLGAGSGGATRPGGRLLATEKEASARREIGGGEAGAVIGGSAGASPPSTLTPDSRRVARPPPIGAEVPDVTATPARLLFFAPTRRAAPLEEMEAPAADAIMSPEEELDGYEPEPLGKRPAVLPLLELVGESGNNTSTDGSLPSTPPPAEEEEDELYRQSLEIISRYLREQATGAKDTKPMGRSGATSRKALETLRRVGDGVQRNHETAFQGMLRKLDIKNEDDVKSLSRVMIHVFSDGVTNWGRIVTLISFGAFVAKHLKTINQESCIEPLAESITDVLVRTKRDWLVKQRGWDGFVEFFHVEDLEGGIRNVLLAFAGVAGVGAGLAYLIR

Structure (SMILES) | percent span
CCOC(=O)c1nc(Nc2ccc(Nc3ccccc3)cc2)c2ccccc2n1 | inactive
COc1cccc2c1C(=O)C=C(C)C2=O | inactive
CNc1ccccc(C(=O)/C=C/c2ccccc2OC)c1=O | inactive
Cc1ccc(/C=C2/NC(=O)N(Cc3ccc(Br)cc3)C2=O)o1 | inactive
CN(C)c1ccc(/C=C2/SC(=O)N(CCN=C3NS(=O)(=O)c4ccccc43)C2=O)cc1 | inactive
CC(C)(C)NC(=O)COc1ccc(CNc2ccc3[nH]c(=O)[nH]c3c2)cc1 | inactive
O=C1NC(=O)C(=Cc2ccc(-c3cc(Cl)ccc3[N+](=O)[O-])o2)C(=O)N1 | inactive
CC(C)CNC(=O)c1cccc(NC(=O)c2ccc(Cl)c([N+](=O)[O-])c2)c1 | inactive
CCN(CC)c1ccc(NC(=O)c2cccc(C)c2)cc1S(=O)(=O)Nc1ccccc1OC | inactive
COc1ccc(C2C(C#N)=C(C)NC3=C2S(=O)(=O)c2ccccc23)cc1 (stereo unspecified) | inactive
CCn1c(SCC(=O)Nc2ccccc2-c2ccccc2)nnc1-c1ccoc1C | inactive
COc1ccc(C2CN(C)CC2C(=O)c2ccc(F)cc2)cc1Cl (stereo unspecified) | inactive
COCCN=c1scc(-c2cccs2)n1/N=C/c1ccc(O)c(O)c1O | inactive
CCOC(=O)C1=C(Cc2ccc(OC)cc2)C(=O)c2ccccc2C1=O | inactive
CCN=c1scc(C)n1/N=C/c1ccc(O)c(O)c1O | inactive
O=C(Nc1ccccc1)Nc1ccc2ncoc2c1 | inactive
CCNC(=S)Nc1cc(OCC)c(NC(=O)c2cccs2)cc1OCC | inactive
Cc1ccc(/C=C/C(=O)c2ccccc(=O)c2O)c(C)c1 | inactive
N/C(Cc1ccc(Cl)c(Cl)c1)=N\OC(=O)c1cccs1 | inactive
CCOC(=O)c1c2c3c(cccc3[nH]c1=O)C(=O)c1ccccc1-2 | inactive
COc1cccc(NC(=O)CSc2nncn2N)c1 | inactive
CCOC(=O)c1[nH]cnc1C(=O)NC(C)C | inactive

Structure (SMILES) | percent span
O=C(N/N=C/c1cccc([N+](=O)[O-])c1)c1cccs1 | inactive
Cc1ccc(NC(=O)C/C(N)=N/OC(=O)c2ccccc2)cc1 | inactive
O=C(NCCCO)Nc1ccc2nc(-c3ccco3)c(-c3ccco3)nc2c1 | inactive
CC1(C)SC(=S)N(NC(=O)Nc2ccccc2)C1N(O)C(=O)Nc1cccc2ccccc12 (stereo unspecified) | inactive
CC(C)(C)C1CCC(=NNC(=O)c2cc3c(s2)CCCC3)CC1 (stereo unspecified) | inactive
CCC(=O)NC(c1ccc(C)cc1)c1cc([N+](=O)[O-])c2cccnc2c1O (stereo unspecified) | inactive
Cc1ccc(SCCC(=O)Nc2ccc(Br)c(C)c2)cc1 | inactive
CC(C)c1ccc(/C=N/NC(=O)c2ccccc2Cl)cc1 | inactive
CC(C)=C1C(=O)NN(c2ccc(C)c(Cl)c2)C1=O | inactive
CCC(=O)OCCNc1cc(Sc2nc3ccccc3s2)c2nonc2c1[N+](=O)[O-] | inactive
Cc1cc(-c2nn(-c3ccccc3)cc2/C=C2\SC(N)=NC2=O)ccc1OC(C)C | inactive
CCN(CC)C(=O)COC(=O)c1cc(-c2ccco2)nc2ccccc12 | inactive
Cc1cc(C)c2nc3nc(C)cc(C)c3c(N)c2c1 | inactive
CC(=O)Nc1ccc(-n2cc(-c3ccccc3)[nH]c2=S)cc1 | inactive
Cn1c(N)c(C(=O)COC(=O)c2cncc(Br)c2)c(=O)n(C)c1=O | inactive
COC(=O)c1cc(OC)c(OC)cc1NC(=O)Nc1cccc(C(C)=O)c1 | inactive
CCN(CC)c1ccc(NC(=O)c2ccc(=O)[nH]c2)cc1S(=O)(=O)Nc1ccccc1OC | inactive
O=C1NCCN1C(=O)N(c1ccccc1)c1ccccc1 | inactive
CN(C)c1ccc(Nc2nc(-c3cccnc3)cs2)cc1 | inactive
COCCN=c1scc(-c2ccco2)n1/N=C/c1ccc(O)c(O)c1O | inactive
O=C(Nc1ccc(Cl)cn1)Nc1ccccc1F | inactive
CCOc1cc(/C=N/NC(=O)c2cccs2)cc([N+](=O)[O-])c1O | inactive

Structure (SMILES) | percent span
O=C(O)c1ccccc1NSc1ccccc1[N+](=O)[O-] | inactive
O=C(C1=NN[C@@H]2C(=O)N(c3cccc(F)c3)C(=O)[C@H]12)c1ccc2ccccc2n1 | inactive
COc1cc(OC)c([N+](=O)[O-])cc1/C=N/NC(=O)c1ccncc1 | inactive
Cc1nnc(Sc2cc(NCCO)c([N+](=O)[O-])c3nonc23)s1 | inactive
Cn1c(N)c(C(=O)COC(=O)c2cc(-c3ccco3)nc3ccccc23)c(=O)n(C)c1=O | inactive
Cc1ccc(-c2cc(C(=O)Nc3ccccn3)c3ccccc3n2)o1 | inactive
Cc1cc(OCc2cn3cccnc3n2)ccc1Cl | inactive
CCOC(=O)/C(=C\c1ccc(Cl)cc1)c1nc2sc(C)c(C)c2c(=O)[nH]1 | inactive
COc1ccc(/C=C2\SC(=O)NC2=S)cc1OC | inactive
O=C(COc1ccccc1Br)NCc1ccccn1 | inactive
N#Cc1ccc(N=c2ssnc2Cl)cc1 | inactive
Cc1cccc(-c2nnc3n2N=C(c2ccccc2)CS3)c1 | inactive
CNCc1ccccc1Sc1ccc(O)c(O)c1 | inactive
COc1cc(NC(=S)NCCCO)c(OC)cc1Cl | inactive
CCSc1ncc(Cl)c(C(=O)Nc2sc3c(c2C(=O)NCc2cccnc2)CCCC3)n1 | inactive
CCOc1ncccc1C(=O)OC(C)C(=O)Nc1ccc(CC)cc1 (stereo unspecified) | inactive
CC1Cc2ccccc2N1C(=O)c1ccc(N2CCCC2)c([N+](=O)[O-])c1 (stereo unspecified) | inactive
CCN1/C(=C/c2ccc3cc(C)cc(C)c3[n+]2CC)Sc2cc(C)ccc21 | inactive
CCOc1cc(/C=N/NC(N)=O)ccc1OCC(=O)Nc1ccc(C)c(C)c1 | inactive
C=CS(=O)c1sc(Cl)c(N2CCOCC2)c1[N+](=O)[O-] (stereo unspecified) | inactive
Cc1cc(/C=C(/C#N)C(=O)Nc2ccc(Cl)cc2)c(C)n1-c1cccnc1 | inactive
CCCCN(C(=O)CCC(=O)Nc1cc(C)on1)C(C(=O)NC(C)(C)C)c1cccc(OC)c1OC (stereo unspecified) | inactive

Structure (SMILES) | percent span
OC(COc1ccc2cc(Br)ccc2c1)CN1CCOCC1 (stereo unspecified) | inactive
CN(C)c1cccc(NC(=O)C2(C)CC2(Cl)Cl)c1 (stereo unspecified) | inactive
CCN(CC)CCN(C(=O)c1ccc(N2C(=O)CCC2=O)cc1)c1nc2cc3c(cc2s1)OCCO3 | inactive
CCCCCCn1nc(C(=O)Nc2nc3c(s2)CCCC3)c2ccccc2c1=O | inactive
S=c1[nH]cc(-c2ccccc2)n1-c1ccccc1 | inactive
Cc1ccc(C)n1-c1cccc(C(=O)O)c1 | inactive
CN(C)CCNC(=O)C(=O)C1C(=O)Nc2ccccc21 (stereo unspecified) | inactive
O=C(Nc1ccncc1)c1cc2ccccc2o1 | inactive
CN1N=C(C(=O)N2CCCC(C(=O)c3cccc(C(F)(F)F)c3)C2)CCC1=O (stereo unspecified) | inactive
CCOC(=O)c1sc(N)c(C(=O)Nc2ccccc2OC)c1C | inactive
Cc1cc(N2CCN(C)CC2)nc2ccc(NC(=S)N3CCCCC3)cc12 | inactive
CCN(CC)c1ccc(NC(=O)COc2ccccc2C#N)cc1S(=O)(=O)Nc1ccccc1OC | inactive
Cc1cc(NC(=O)CCSc2ccccc2)ccc1Br | inactive
CCn1c(SCC(=O)Nc2ccc(C)cc2)nnc1-c1ccc(O)cc1 | inactive
COc1cccc(/C=N/NC(=O)c2cc3cc([N+](=O)[O-])ccc3s2)c1O | inactive
CCOC(=O)c1nc(Nc2ccc(N3CCC(C)CC3)cc2)c2ccccc2n1 | inactive
CCCCC(C(=O)OCC)C(N)Cc1ccc(F)cc1 (stereo unspecified) | inactive
COc1cc(C2Nc3cccc4cccc(c34)N2)cc(OC)c1O | inactive
NC(=O)CSc1nnc(Cn2cnc3ccccc32)o1 | inactive
Cc1ccc(/C=C2\CCCC3=C2NC(=S)NC3c2ccc(C)cc2)cc1 (stereo unspecified) | inactive
Cc1cc[n+]2cc(-c3cccc([N+](=O)[O-])c3)c(-c3cccc([N+](=O)[O-])c3)cc2c1 | inactive
O=C(c1cccc(Br)c1)N1CCN(c2cnn(-c3ccccc3)c(=O)c2Cl)CC1 | inactive

Structure (SMILES) | percent span
O=[N+]([O-])c1ccc(N2CCN(c3ccc(O)cc3)CC2)c(Cl)c1 | inactive
O=C(Nc1ccccn1)c1cc2ccccc2o1 | inactive
C/C(=N\NC(=O)Cc1cccn1C)c1ccc2ccccc2c1 | inactive
CSc1nnc2ccc(-c3cccs3)nn12 | inactive
CCc1ccc(NC(=O)Cc2ccc(OC)cc2)cc1 | inactive
Cc1cc(-c2csc(N)n2)c(C)n1C | inactive
O=C(Nc1ccc2nc(-c3ccco3)c(-c3ccco3)nc2c1)N1CCCCCC1 | inactive
O=C(Nc1nnc(SCc2ccccn2)s1)C1CC(=O)N(c2ccccc2)C1 (stereo unspecified) | inactive
CCC(=O)OCCNc1cc(Sc2nc3ccccc3[nH]2)c2nonc2c1[N+](=O)[O-] | inactive
O=C(c1ccc(CNS(=O)(=O)c2ccc(Br)cc2)cc1)N1CCCC1 | inactive
Cc1cc(-c2cc(-c3ccc(Cl)cc3)nc(N)c2C#N)co1 | inactive
Cc1ccc(-c2n[nH]c(=S)n2-c2ccccc2)cc1 | inactive
Cc1ccc(S(=O)(=O)NC(=O)COc2ccccc2C)cc1 | inactive
Nc1ccc(N2CCN(CCCCN3C(=O)C4CCCN4C3=O)CC2)cc1 (stereo unspecified) | inactive
Nc1ccc(C2=Nc3cccc4cccc(c34)N2)cc1 | inactive
CCOC(=O)N1CCC(c2cc(=O)n(-c3ccccc3)[nH]2)CC1 | inactive
NNC(=O)COc1ccccc1F | inactive
Cc1ccc(/C=N/N(C)C2=NS(=O)(=O)c3ccccc32)o1 | inactive
